From patent US20230277863A1, “Use Of Photosensitizers For Treatment Of Viral Respiratory Infections” (priority 2020, published 2023)

Legend:
[1] = system: SARS-CoV-2/Germany strain; experiment: Inactivation of SARS-CoV-2 in infected Vero E6 cells, methylene blue plus broadband LED irradiation; conditions: for mean reduction factor (RF): broadband LED (Ledlenser P6), SARS-CoV-2-infected Vero E6 cells; for inactivation of the SARS-CoV-2: corresponds to the mean RF
bovine coronavirus = experiment: Inactivation of bovine coronavirus in infected cells using non-coherent LED light; format: cell-based; conditions: broadband LED light (non-coherent), 10000 Lux, 2 min of irradiation
Protocol: In a further set of experiments, the U737 cells were treated under the conditions as shown in the table of FIG. 1 using irradiation with either a monochromatic LED device at 590 nm or a broadband LED device (non-coherent light in each case). Light intensity was 10000 Lux in both cases.

BCoV strain L9 = experiment: Inactivation of bovine coronavirus in infected U373 cells, photosensitizer plus 810 nm laser irradiation; conditions: for residual virus: 100 joule/cm^2, 0.3 watt/cm^2
SARS-CoV-2 = experiment: Treatment of a human subject suffering from COVID-19; format: in vivo; conditions: one patient, 3 days, every 6 hours
[2] = 0.01% photosensitizer, without radiation, immediately wrapped in aluminium foil, stored and frozen in the dark

## CN(C)c1ccc2nc3ccc(=[N+](C)C)cc-3sc2c1 [methylene blue]
[1]; 0.0001% photosensitizer
  mean reduction factor (RF): ≥ 4.67
  inactivation of the SARS-CoV-2: 99.99%
[1]; 0.001% or 0.0001% photosensitizer, irradiation 1 minute, 20,000 lx, initial virus titre 6.92 log 10 TCID50/ml, Vero E6 cells
  residual virus: No residual virus was found
[1]; 0.001% photosensitizer
  mean reduction factor (RF): ≥ 4.67
  inactivation of the SARS-CoV-2: 99.99%
Bovine coronavirus
  reduction of residual virus: 3 log10 steps
BCoV strain L9; 0.0001% (w/v) photosensitizer, 810 nm, 100 joule/cm^2, 0.3 watt/cm^2, 5.46 min, BCoV-infected U373 cells
  mean reduction factor: ≥ 6.00 log10 steps
BCoV strain L9; 0.0001% photosensitizer samples, titration on U373 cells
  cytotoxicity (CT): no cytotoxicity
BCoV strain L9; 0.0001% photosensitizer, 810 nm
  residual virus: only minimal residual virus could still be detected in one sample
BCoV strain L9; 0.0001% photosensitizer, 810 nm, 100 joule/cm^2, corresponds to the mean RF
  virus inactivation: ≥ 99.999%
BCoV strain L9; 0.001% (w/v) photosensitizer, 810 nm, 100 joule/cm^2, 0.3 watt/cm^2, 5.46 min, BCoV-infected U373 cells
  reduction factor (RF): 5.08 log10 steps
BCoV strain L9; 0.01% (w/v) photosensitizer, 810 nm, 100 joule/cm^2, 0.3 watt/cm^2, 5.46 min, BCoV-infected U373 cells
  reduction factor (RF): 4.08 log10 steps
BCoV strain L9; [2]
  reduction factor (RF): 0.38±0.64
  residual virus / effectiveness: substantial amounts of residual virus and no effectiveness
BCoV strain L9; 0.1% (w/v) photosensitizer, 810 nm, 100 joule/cm^2, 0.3 watt/cm^2, 5.46 min, BCoV-infected U373 cells
  reduction factor (RF): 3.08 log10 steps
BCoV strain L9; 0.1% (w/v) to 0.001% (w/v) photosensitizer, 810 nm
  residual virus: no residual virus was found
SARS-CoV-2; 3 μg methylene blue nasal/throat spray plus broadband LED ca. 6000 Lux, CT before treatment 19
  PCR SARS-CoV-2 cycle threshold (CT) after treatment: 35
SARS-CoV-2; 3 μg methylene blue spray plus broadband LED, before: dry cough, headache, 38.2° C., medium general condition
  condition of patient after treatment: no cough, no headache, normalized body temperature, normal general condition
